Test results: patent US11000033B2, “Ketone or oxime compound, and herbicide” (NISSAN CHEMICAL CORPORATION, priority 2014, dated 2021)

Assays:
Assay type in all cases: in vivo
Leptochloa chinensis = experiment: Test Example 3: herbicidal effect by foliage application, Wagner pot (symbol D); settings: application herbicide amount 320 g/ha
Outline: (§1)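 Post-emergence, paddy-type test: seedlings 14 d old in shallow-flooded (0.1–0.5 cm) alluvial soil, 25–30 °C greenhouse. Emulsion diluted to target rate, sprayed on leaves. Read-out: visual effect on each species at 3 weeks, per set criteria.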

Cyperus difformis = experiment: Test Example 3: herbicidal effect by foliage application, Wagner pot (symbol E); settings: application herbicide amount 320 g/ha
Outline: as §1

Digitaria ciliaris = experiment: Test Example 4: herbicidal effect by soil treatment (symbol F); settings: application herbicide amount 320 g/ha
Outline: (§2)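 Seeds were sown in sterilized diluvial soil, covered with about 1.5 cm of soil, and the soil surface was sprayed with a water-diluted emulsion of the compound at a predetermined rate. Plants grew in a greenhouse at 25° C. to 30° C.; effects were scored visually 3 weeks after application.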

Setaria viridis = experiment: Test Example 5: herbicidal effect by foliage application, plastic box (symbol G); settings: 320 g/ha, 3 weeks after application
Outline: (§3)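 Visual herbicidal score, taken three weeks post-application, of seedlings sprayed on the foliage with water-diluted emulsion at a predetermined amount; plants were 14 days old, greenhouse-raised at 25° C. to 30° C.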

corn [1] = experiment: Test Example 4: effect on crop by soil treatment (symbol c); settings: application herbicide amount 320 g/ha
Outline: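 Greenhouse culture at 25° C. to 30° C. followed sowing of seed in spots on sterilized diluvial soil with a soil cover close to 1.5 cm thick.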

Amaranthus retroflexus = experiment: Test Example 4: herbicidal effect by soil treatment (symbol N); settings: application herbicide amount 320 g/ha
Outline: as §2

Abutilon theophrasti [2] = experiment: Test Example 5: herbicidal effect by foliage application, plastic box (symbol M); settings: 320 g/ha, 3 weeks after application
Outline: as §3

corn [3] = experiment: Test Example 5: effect on crop by foliage application, plastic box (symbol c); settings: 320 g/ha, 3 weeks after application
Outline: (§4)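 Box culture: sterile diluvial soil, seeds spot-sown, ~1.5 cm cover, raised under glass at 25–30° C.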

Lolium multiflorum Lam. [4] = experiment: Test Example 4: herbicidal effect by soil treatment (symbol K); settings: application herbicide amount 320 g/ha
Outline: as §2

wheat = experiment: Test Example 5: effect on crop by foliage application, plastic box (symbol e); settings: 320 g/ha, 3 weeks after application
Outline: as §4

soybean = experiment: Test Example 4: effect on crop by soil treatment (symbol d); settings: application herbicide amount 320 g/ha
Outline: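 Grown at 25° C. to 30° C. in a greenhouse, the crops came from seed sown spot-wise in sterilized diluvial soil under roughly 1.5 cm of covering soil.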

Avena fatua = experiment: Test Example 5: herbicidal effect by foliage application, plastic box (symbol I); settings: 320 g/ha, 3 weeks after application
Outline: as §3

beet = experiment: Test Example 5: effect on crop by foliage application, plastic box (symbol f); settings: 320 g/ha, 3 weeks after application
Outline: as §4

Abutilon theophrasti [5] = experiment: Test Example 4: herbicidal effect by soil treatment (symbol M); settings: application herbicide amount 320 g/ha
Outline: as §2

[6] = test system: directly sowed rice plant; experiment: Test Example 3: effect on crop by foliage application, Wagner pot (symbol b); settings: application herbicide amount 320 g/ha
Outline: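 Wagner pot (1/10000 are), alluvial soil, submerged 0.1–0.5 cm; sown E. crus-galli var. crus-galli, L. chinensis, C. difformis, rice; greenhouse 25–30 °C.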

[7] = test system: Echinochloa crus-galli var. crus-galli; experiment: Test Example 4: herbicidal effect by soil treatment (symbol H); settings: application herbicide amount 320 g/ha
Outline: as §2

Lolium multiflorum Lam. [8] = experiment: Test Example 5: herbicidal effect by foliage application, plastic box (symbol K); settings: 320 g/ha, 3 weeks after application
Outline: as §3

Apera spica-venti = experiment: Test Example 5: herbicidal effect by foliage application, plastic box (symbol L); settings: 320 g/ha, 3 weeks after application
Outline: as §3

Chenopodium album = experiment: Test Example 5: herbicidal effect by foliage application, plastic box (symbol O); settings: 320 g/ha, 3 weeks after application
Outline: as §3

rapeseed = experiment: Test Example 5: effect on crop by foliage application, plastic box (symbol g); settings: 320 g/ha, 3 weeks after application
Outline: as §4

SMILES	herbicidal effect on D (Leptochloa chinensis), grade 0-5 (Leptochloa chinensis)	herbicidal effect on E, grade 0-5 (Cyperus difformis)	F: Digitaria ciliaris, herbicidal effect grade (Digitaria ciliaris)	G: Setaria viridis, herbicidal effect grade (Setaria viridis)	c: corn, effect on crop grade (corn [1])	N: Amaranthus retroflexus, herbicidal effect grade (Amaranthus retroflexus)	M: Abutilon theophrasti, herbicidal effect grade (Abutilon theophrasti [2])	c: corn, effect on crop grade (corn [3])	K: Lolium multiflorum Lam., herbicidal effect grade (Lolium multiflorum Lam. [4])	e: wheat, effect on crop grade (wheat)	d: soybean, effect on crop grade (soybean)	I: Avena fatua, herbicidal effect grade (Avena fatua)	f: beet, effect on crop grade (beet)	M: Abutilon theophrasti, herbicidal effect grade (Abutilon theophrasti [5])	effect on crop b (directly sowed rice plant), grade 0-5 [6]	H: Echinochloa crus-galli var. crus-galli, herbicidal effect grade [7]	K: Lolium multiflorum Lam., herbicidal effect grade (Lolium multiflorum Lam. [8])	L: Apera spica-venti, herbicidal effect grade (Apera spica-venti)	O: Chenopodium album, herbicidal effect grade (Chenopodium album)	g: rapeseed, effect on crop grade (rapeseed)
CCC(CCC1CC(O)=C(c2c(C)cc(C)cc2C)C1=O)=NOC (mixture of isomers) [4-001]	3 (Herbicidal ratio of 40% or higher and lower than 70%)	0 (Herbicidal ratio of 5% or lower (almost no effect))	2 (Herbicidal ratio of 20% or higher and lower than 40%)	1 (Herbicidal ratio of 5% or higher and lower than 20%)	0 (Herbicidal ratio of 5% or lower (almost no effect))	0 (Herbicidal ratio of 5% or lower (almost no effect))	0 (Herbicidal ratio of 5% or lower (almost no effect))	1 (Herbicidal ratio of 5% or higher and lower than 20%)	5 (Herbicidal ratio of 90% or more (almost completely withered))	0 (Herbicidal ratio of 5% or lower (almost no effect))	0 (Herbicidal ratio of 5% or lower (almost no effect))	4 (Herbicidal ratio of 70% or higher and lower than 90%)	0 (Herbicidal ratio of 5% or lower (almost no effect))	0 (Herbicidal ratio of 5% or lower (almost no effect))	4 (Herbicidal ratio of 70% or higher and lower than 90%)	0 (Herbicidal ratio of 5% or lower (almost no effect))	5 (Herbicidal ratio of 90% or more (almost completely withered))	2 (Herbicidal ratio of 20% or higher and lower than 40%)	0 (Herbicidal ratio of 5% or lower (almost no effect))	–
CON=C(C)CC1CC(O)=C(c2c(C)cc(-n3cc(Cl)cn3)cc2C)C1=O (mixture of isomers) [6-004]	5 (Herbicidal ratio of 90% or more (almost completely withered))	5 (Herbicidal ratio of 90% or more (almost completely withered))	5 (Herbicidal ratio of 90% or more (almost completely withered))	5 (Herbicidal ratio of 90% or more (almost completely withered))	2 (Herbicidal ratio of 20% or higher and lower than 40%)	4 (Herbicidal ratio of 70% or higher and lower than 90%)	3 (Herbicidal ratio of 40% or higher and lower than 70%)	4 (Herbicidal ratio of 70% or higher and lower than 90%)	5 (Herbicidal ratio of 90% or more (almost completely withered))	0 (Herbicidal ratio of 5% or lower (almost no effect))	0 (Herbicidal ratio of 5% or lower (almost no effect))	4 (Herbicidal ratio of 70% or higher and lower than 90%)	–	0 (Herbicidal ratio of 5% or lower (almost no effect))	5 (Herbicidal ratio of 90% or more (almost completely withered))	5 (Herbicidal ratio of 90% or more (almost completely withered))	5 (Herbicidal ratio of 90% or more (almost completely withered))	5 (Herbicidal ratio of 90% or more (almost completely withered))	3 (Herbicidal ratio of 40% or higher and lower than 70%)	4 (Herbicidal ratio of 70% or higher and lower than 90%)
CC#Cc1cc(C)c(C2=C(O)CC(CC(C)=NOC)C2=O)c(CC)c1 (mixture of isomers) [6-006]	5 (Herbicidal ratio of 90% or more (almost completely withered))	5 (Herbicidal ratio of 90% or more (almost completely withered))	5 (Herbicidal ratio of 90% or more (almost completely withered))	3 (Herbicidal ratio of 40% or higher and lower than 70%)	5 (Herbicidal ratio of 90% or more (almost completely withered))	3 (Herbicidal ratio of 40% or higher and lower than 70%)	0 (Herbicidal ratio of 5% or lower (almost no effect))	1 (Herbicidal ratio of 5% or higher and lower than 20%)	5 (Herbicidal ratio of 90% or more (almost completely withered))	5 (Herbicidal ratio of 90% or more (almost completely withered))	0 (Herbicidal ratio of 5% or lower (almost no effect))	1 (Herbicidal ratio of 5% or higher and lower than 20%)	–	4 (Herbicidal ratio of 70% or higher and lower than 90%)	5 (Herbicidal ratio of 90% or more (almost completely withered))	5 (Herbicidal ratio of 90% or more (almost completely withered))	4 (Herbicidal ratio of 70% or higher and lower than 90%)	3 (Herbicidal ratio of 40% or higher and lower than 70%)	0 (Herbicidal ratio of 5% or lower (almost no effect))	4 (Herbicidal ratio of 70% or higher and lower than 90%)
CCC(=O)CCC1CC(OC)=C(c2c(C)cc(C)cc2C)C1=O (stereo not shown) [5-002]	0 (Herbicidal ratio of 5% or lower (almost no effect))	0 (Herbicidal ratio of 5% or lower (almost no effect))	0 (Herbicidal ratio of 5% or lower (almost no effect))	0 (Herbicidal ratio of 5% or lower (almost no effect))	0 (Herbicidal ratio of 5% or lower (almost no effect))	0 (Herbicidal ratio of 5% or lower (almost no effect))	0 (Herbicidal ratio of 5% or lower (almost no effect))	0 (Herbicidal ratio of 5% or lower (almost no effect))	0 (Herbicidal ratio of 5% or lower (almost no effect))	0 (Herbicidal ratio of 5% or lower (almost no effect))	0 (Herbicidal ratio of 5% or lower (almost no effect))	0 (Herbicidal ratio of 5% or lower (almost no effect))	0 (Herbicidal ratio of 5% or lower (almost no effect))	0 (Herbicidal ratio of 5% or lower (almost no effect))	0 (Herbicidal ratio of 5% or lower (almost no effect))	0 (Herbicidal ratio of 5% or lower (almost no effect))	0 (Herbicidal ratio of 5% or lower (almost no effect))	0 (Herbicidal ratio of 5% or lower (almost no effect))	0 (Herbicidal ratio of 5% or lower (almost no effect))	–
